The source of these data is US20240383886A1, “Protein Tyrosine Phosphatase Degraders and Methods of Use Thereof” (CALICO LIFE SCIENCES LLC, priority 2019, published 2024).

In test [1] the target is T1, PTPN2 (Homo sapiens, UniProt P17706).
T1 construct: expressed in transfected cells; host or cells: 293T (293T.109 HiBiT-PTPN2 line; parental 293T WT from ATCC)
T1 sequence (P17706 1-415): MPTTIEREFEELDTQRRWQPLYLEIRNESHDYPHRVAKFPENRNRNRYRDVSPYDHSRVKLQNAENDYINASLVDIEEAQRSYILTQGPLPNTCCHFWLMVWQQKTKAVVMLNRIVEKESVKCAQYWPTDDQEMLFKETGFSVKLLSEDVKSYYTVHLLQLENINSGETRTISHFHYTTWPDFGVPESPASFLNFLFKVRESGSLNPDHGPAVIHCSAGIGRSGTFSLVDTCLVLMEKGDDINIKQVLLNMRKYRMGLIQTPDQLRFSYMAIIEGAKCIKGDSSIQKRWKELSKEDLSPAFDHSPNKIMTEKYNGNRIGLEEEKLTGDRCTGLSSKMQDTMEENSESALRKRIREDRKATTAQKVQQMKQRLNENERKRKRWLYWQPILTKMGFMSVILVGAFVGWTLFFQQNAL
In words: HiBiT-Degradation 293T.109 PTPN2 (Nano-Glo HiBiT Lytic Assay). It is filed as cell-based. The following applies: 293T.109 (HiBiT-PTPN2) cells, 24.0 hours. In a few lines:
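Luminescence from a lytic HiBiT read gave PTPN2 levels after 24 h compound exposure at 37° C. Compounds were tested at 11 half-log points from a 10 μM top concentration, in duplicate. The cells were 293T engineered with an N-terminal HiBiT–PTPN2 fusion, plated at 5000 per well, with untreated wells as negative control and no-reagent wells as positive control.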

The test system of test [2] is PTPN2. In words: HiBiT-Degradation B16F10.4 PTPN2. It is filed as cell-based. The following applies: B16F10.4 cells, 24.0 hours.

As for `Cn1c(=O)n(C2CCC(=O)NC2=O)c2ccc(C3CCN(CCC(=O)N4CC[C@@H](c5ccc6cc(O)c(N7CC(=O)NS7(=O)=O)c(F)c6c5)C4)CC3)cc21` (some centres unmarked) [Example 145], the DC50 is 10 to 50 nM at PTPN2 [1] and 50 to 200 nM in the test on PTPN2 [2].
With `O=C1CCC(N2C(=O)c3cccc(NCc4cn(C5CN(C(=O)Nc6ccc7c(F)c(N8CC(=O)NS8(=O)=O)c(O)cc7c6)C5)nn4)c3C2=O)C(=O)N1` (centres unmarked) [Example 17, 3-[4-[[[2-(2,6-dioxo-3-piperidyl)-1,3-dioxo-isoindolin-4-yl]amino]methyl]triazol-1-yl]-N-[5-fluoro-7-hydroxy-6-(1,1,4-trioxo-1,2,5-thiadiazolidin-2-yl)-2-naphthyl]azetidine-1-carboxamide], the DC50 on PTPN2 [1] is 50 to 200 nM; with PTPN2 [2] it was at least 1000 nM.
The corresponding values for `Cn1c(=O)n(C2CCC(=O)NC2=O)c2ccc(-c3ccc(NC(=O)NCCOc4ccc5cc(O)c(N6CC(=O)NS6(=O)=O)c(F)c5c4)cc3)cc21` (centres unmarked) [Example 139, 1-[4-[1-(2,6-dioxo-3-piperidyl)-3-methyl-2-oxo-benzimidazol-5-yl]phenyl]-3-[2-[[8-fluoro-6-hydroxy-7-(1,1,4-trioxo-1,2,5-thiadiazolidin-2-yl)-2-naphthyl]oxy]ethyl]urea] are 50 to 200 nM and 50 to 200 nM.
The like results for `Cn1c(=O)n(C2CCC(=O)NC2=O)c2ccc(-c3cnn(CC(=O)Nc4ccc5c(F)c(N6CC(=O)NS6(=O)=O)c(O)cc5c4)c3)cc21` (centres unmarked) [Example 172, 2-[4-[1-(2,6-dioxo-3-piperidyl)-3-methyl-2-oxo-benzimidazol-5-yl]pyrazol-1-yl]-N-[5-fluoro-7-hydroxy-6-(1,1,4-trioxo-1,2,5-thiadiazolidin-2-yl)-2-naphthyl]acetamide] were, in that order, 10 to 50 nM and 10 to 50 nM.
With `Cn1c(=O)n(C2CCC(=O)NC2=O)c2ccc(-c3cnn(CCC(=O)Nc4ccc5c(F)c(N6CC(=O)NS6(=O)=O)c(O)cc5c4)c3)cc21` (centres unmarked) [Example 173, N-(6-(1,1-dioxido-4-oxo-1,2,5-thiadiazolidin-2-yl)-5-fluoro-7-hydroxynaphthalen-2-yl)-3-(4-(1-(2,6-dioxopiperidin-3-yl)-3-methyl-2-oxo-2,3-dihydro-1H-benzo[d]imidazol-5-yl)-1H-pyrazol-1-yl)propanamide], the DC50 on PTPN2 [1] was 10 to 50 nM; in the test with PTPN2 [2] it was 50 to 200 nM.
The corresponding values for `O=C(CCOCCC(=O)N1CCN(c2ccc(NC3CCC(=O)NC3=O)cc2)CC1)NCCOc1ccc2cc(O)c(N3CC(=O)NS3(=O)=O)c(F)c2c1` (centres unmarked) [Example 43] are at least 1000 nM and at least 1000 nM.
The like results for `Cn1c(=O)n(C2CCC(=O)NC2=O)c2ccc(C3CCN(Cc4ccn(-c5ccc6c(F)c(N7CC(=O)NS7(=O)=O)c(O)cc6c5)n4)CC3)cc21` (centres unmarked) [Example 154, 3-(5-(1-((1-(6-(1,1-dioxido-4-oxo-1,2,5-thiadiazolidin-2-yl)-5-fluoro-7-hydroxynaphthalen-2-yl)-1H-pyrazol-3-yl)methyl)piperidin-4-yl)-3-methyl-2-oxo-2,3-dihydro-1H-benzo[d]imidazol-1-yl)piperidine-2,6-dione] were, in that order, 200 to 1000 nM and at least 1000 nM.
The like results for `O=C1CCC(N2C(=O)c3ccc(OCc4cn(CCC(=O)Nc5ccc6c(F)c(N7CC(=O)NS7(=O)=O)c(O)cc6c5)nn4)cc3C2=O)C(=O)N1` (centres unmarked) [Example 60] were, in that order, 200 to 1000 nM and 200 to 1000 nM.
Turning to `O=C1CCC(N2Cc3c(OCc4cn(CCC(=O)Nc5ccc6c(F)c(N7CC(=O)NS7(=O)=O)c(O)cc6c5)nn4)cccc3C2=O)C(=O)N1` (centres unmarked) [Example 19, N-(6-(1,1-dioxido-4-oxo-1,2,5-thiadiazolidin-2-yl)-5-fluoro-7-hydroxynaphthalen-2-yl)-3-(4-(((2-(2,6-dioxopiperidin-3-yl)-1-oxoisoindolin-4-yl)oxy)methyl)-1H-1,2,3-triazol-1-yl)propanamide], the half-maximal degradation concentration (DC50) was in the range of 50 to 200 nM at PTPN2 [1] and 200 to 1000 nM with PTPN2 [2].
On to `O=C(CCOCCn1cc(C2(Nc3cccc4c3C(=O)N(C3CCC(=O)NC3=O)C4=O)CC2)nn1)NCCOc1ccc2cc(O)c(N3CC(=O)NS3(=O)=O)c(F)c2c1` (centres unmarked) [Example 38], for which the DC50 at PTPN2 [1] and in the test on PTPN2 [2] was at least 1000 nM throughout.
